Laboratory results reported in publication PMC13114161 (Antibiotics, 2026).
Values after ≈ are worked out from the molar mass of the structure shown. Read-outs that look alike come from different tables or passages of the source.

Legend:
[1] = system: P. aeruginosa CDC AR-0232, AR-0248, AR-0249; format: cell-based, Pseudomonas aeruginosa
Procedure: Frequency-of-resistance studies were carried out as described previously.

in vivo = conditions: female, CD-1, mouse, 30 mg/kg; for half-life: Plasma Half-life; for Vd: Plasma Vd
Procedure: The P. aeruginosa strain UNT034-1 (ATCC 27853) was used for infection studies. Female CD-1 mice (6–8 weeks old; 22 ± 2 g) were obtained from Envigo Laboratories (Indianapolis, IN, USA). All procedures were conducted in accordance with protocols approved by the University of North Texas Health Science Center (UNTHSC) Institutional Animal Care and Use Committee (protocol IACUC-2021-0003). Neutropenia was induced by intraperitoneal (i.p.) injection of cyclophosphamide (Cytoxan) at 150 mg/kg on day 4 and 100 mg/kg on day 1 before infection. Mice were anesthetized by i.p. injection of ketamine (40 mg/kg) and xylazine (6 mg/kg) and intranasally inoculated with 0.05 mL of the prepared P. aeruginosa suspension by placing droplets onto the nares and allowing inhalation. Following inoculation, mice were returned to cages for recovery. […] At predetermined time points (0.083, 0.25, 0.5, 1, 2, 4, 8, and 24 h), groups of three mice were euthanized by CO2 asphyxiation. Blood was collected by cardiac puncture into tubes containing EDTA or serum separator gel, centrifuged at 4 °C, and plasma or serum was harvested within 30 min of collection. Bronchoalveolar lavage fluid (BALF) was collected to determine drug concentrations at the site of infection. Briefly, 1.2 mL of sterile 0.9% NaCl was instilled into the lungs via the trachea and gently withdrawn. The epithelial lining fluid (ELF) dilution factor was determined by the blood urea nitrogen (BUN) method. Plasma and BALF samples were stored at −80 °C until analysis. Drug concentrations were quantified by LC-MS/MS using a Surveyor HPLC system coupled to a TSQ Quantum Ultra triple-quadrupole mass spectrometer (Thermo Scientific). Separation was achieved on a Phenomenex Kinetex PFP column (50 × 2.1 mm, 2.6 µm) with a mobile phase gradient of water (0.1% formic acid, A) and acetonitrile (0.1% formic acid, B) at 0.5 mL/min. The gradient proceeded from 10% to 90% B over 4 min, held for 1 min, and re-equilibrated to initial conditions. The column oven was maintained at 30 °C. […] Samples (50 µL plasma or BALF) were spiked with 10 µL of internal standard in methanol, precipitated with 150 µL acetonitrile, vortexed, sonicated for 10 min, and centrifuged at 14,500 rpm for 5 min. A 100 µL aliquot of the supernatant was transferred to autosampler vials, and 10 µL was injected for analysis. Concentration-time data were analyzed using noncompartmental methods (PK Solutions v2.0; Summit Research Services, Montrose, CO, USA). Parameters including area under the concentration-time curve (AUC0-t), maximum concentration (Cmax), time to Cmax (Tmax), apparent volume of distribution (Vd), systemic clearance (CL), and terminal half-life (t½) were calculated. Data are presented as means ± standard deviation (SD) for three animals per time point.

Aqueous solubility = format: physicochemical; conditions: for solubility at 6 h: system solution (SS), pH 7.4, aqueous buffer, kinetic from dmso stock
Procedure: The aqueous solubility of TXA11114 was evaluated in system solution (SS) at pH 7.4. Known concentrations of TXA11114, prepared as DMSO stock solutions, were spiked into SS and incubated for 6 h at room temperature with constant shaking (250 rpm). Caffeine and diethylstilbestrol (DES) were used as positive controls. […] Aliquots (500 µL) of diluted test and control compounds were dispensed into 96-deep-well plates in triplicate, sealed, and incubated as described above. Following incubation, 300 µL samples were withdrawn and filtered using 0.22 µm filter plates. Optical density at λ_max was measured using a UV spectrophotometer.

CYP1A2 = target: T1, CYP1A2 (Homo sapiens, UniProt P05177); assay: Cytochrome P450 inhibition; format: in vitro ADME; conditions: human liver microsomes, read-out: CYP Inhibition IC50, 1A2
T1 construct: from tissue; host or cells: human liver microsomes
T1 sequence (P05177 whole entry): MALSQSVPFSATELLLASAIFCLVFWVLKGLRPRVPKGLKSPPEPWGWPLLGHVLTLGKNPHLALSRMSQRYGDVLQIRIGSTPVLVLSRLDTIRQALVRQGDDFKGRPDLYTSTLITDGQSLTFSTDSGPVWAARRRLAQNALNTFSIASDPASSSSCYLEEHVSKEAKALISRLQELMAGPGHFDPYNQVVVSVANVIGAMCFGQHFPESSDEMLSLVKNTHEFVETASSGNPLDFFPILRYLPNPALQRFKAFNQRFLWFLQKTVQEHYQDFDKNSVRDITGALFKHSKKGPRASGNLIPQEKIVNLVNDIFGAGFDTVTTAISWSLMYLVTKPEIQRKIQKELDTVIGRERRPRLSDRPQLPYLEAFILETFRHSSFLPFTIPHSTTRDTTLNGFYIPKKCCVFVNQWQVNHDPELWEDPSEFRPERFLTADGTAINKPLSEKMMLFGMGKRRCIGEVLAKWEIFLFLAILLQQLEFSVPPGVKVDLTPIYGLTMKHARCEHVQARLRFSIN
Procedure: (§1) Inhibition of CYP1A2, CYP2D6, CYP2C9, CYP2C19, and CYP3A4 by TXA11114 was assessed in human liver microsomes by measuring the inhibition of probe substrate metabolism. Phenacetin, bufuralol, diclofenac, S-mephenytoin, and midazolam were used as probe substrates for CYP1A2, CYP2D6, CYP2C9, CYP2C19, and CYP3A4, respectively. Corresponding metabolites (acetaminophen, OH-bufuralol, 4-OH diclofenac, 4-OH mephenytoin, and 1-OH midazolam) were quantified by LC-MS/MS. Selective inhibitors (fluvoxamine (CYP1A2), quinidine (CYP2D6), sulfaphenazole (CYP2C9), ticlopidine (CYP2C19), and ketoconazole (CYP3A4)) were used as positive controls. Test and control compounds, prepared in DMSO at various concentrations, were spiked into 2× microsomal reaction mixtures, and 50 µL aliquots were transferred to individual wells. Probe substrates (25 µL, 4× concentration) were added to the respective wells and pre-incubated for 5 min at 37 °C. Reactions were initiated by the addition of 25 µL NADPH (4×) and incubated for 5 min (CYP3A4), 10 min (CYP1A2, CYP2D6, CYP2C9), or 20 min (CYP2C19). Reactions were quenched with 100 µL ice-cold acetonitrile containing glipizide as an internal standard. Plates were centrifuged at 4000 rpm for 15 min, and 100 µL supernatants were analyzed by LC-MS/MS in MRM mode. […] Percent inhibition was calculated as 100 − percent activity. IC50 values were determined using GraphPad Prism (version 5.02).

CYP2C19 = target: T2, CYP2C19 (Homo sapiens, UniProt P33261); assay: Cytochrome P450 inhibition; format: in vitro ADME; conditions: human liver microsomes, read-out: CYP Inhibition IC50, 2C19
T2 construct: from tissue; host or cells: human liver microsomes
T2 sequence (P33261 whole entry): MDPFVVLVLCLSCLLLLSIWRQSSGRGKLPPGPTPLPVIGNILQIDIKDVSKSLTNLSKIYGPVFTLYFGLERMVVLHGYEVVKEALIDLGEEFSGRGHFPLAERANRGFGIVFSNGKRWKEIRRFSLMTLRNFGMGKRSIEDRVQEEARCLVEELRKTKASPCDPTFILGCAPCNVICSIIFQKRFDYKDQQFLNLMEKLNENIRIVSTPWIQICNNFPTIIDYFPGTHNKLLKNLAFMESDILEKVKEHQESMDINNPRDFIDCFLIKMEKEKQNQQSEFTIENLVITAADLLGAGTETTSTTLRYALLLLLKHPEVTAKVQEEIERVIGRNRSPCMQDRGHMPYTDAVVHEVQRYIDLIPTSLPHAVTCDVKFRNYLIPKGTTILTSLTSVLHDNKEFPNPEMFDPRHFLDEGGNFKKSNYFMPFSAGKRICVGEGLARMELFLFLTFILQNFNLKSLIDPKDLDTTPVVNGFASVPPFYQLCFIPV
Procedure: as §1

CYP2C9 = target: T3, CYP2C9 (Homo sapiens, UniProt P11712); assay: Cytochrome P450 inhibition; format: in vitro ADME; conditions: human liver microsomes, read-out: CYP Inhibition IC50, 2C9
T3 construct: from tissue; host or cells: human liver microsomes
T3 sequence (P11712 whole entry): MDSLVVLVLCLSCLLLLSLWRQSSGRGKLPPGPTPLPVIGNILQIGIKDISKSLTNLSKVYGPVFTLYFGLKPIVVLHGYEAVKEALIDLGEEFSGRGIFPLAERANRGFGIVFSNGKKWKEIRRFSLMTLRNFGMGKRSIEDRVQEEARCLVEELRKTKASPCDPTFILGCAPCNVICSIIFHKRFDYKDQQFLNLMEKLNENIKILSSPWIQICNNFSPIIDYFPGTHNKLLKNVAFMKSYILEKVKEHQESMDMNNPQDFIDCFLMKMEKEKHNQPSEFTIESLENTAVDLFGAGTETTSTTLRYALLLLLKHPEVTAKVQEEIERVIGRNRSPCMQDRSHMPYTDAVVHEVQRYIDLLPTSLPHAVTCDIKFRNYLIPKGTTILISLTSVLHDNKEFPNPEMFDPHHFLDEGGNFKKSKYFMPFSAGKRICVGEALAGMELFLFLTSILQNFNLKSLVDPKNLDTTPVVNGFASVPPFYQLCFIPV
Procedure: as §1

C[C@H]1COc2c(N3CCN(C)CC3)c(F)cc3c(=O)c(C(=O)O)cn1c23 [Levofloxacin, levofloxacin]
Frequency of Resistance ([1]; CDC AR-0232, levofloxacin 4× MIC (32 μg/mL) alone): 1.68 × 10^−8 | Frequency of Resistance ([1]; CDC AR-0248, levofloxacin 4× MIC (64 μg/mL) alone): 8.64 × 10^−8 | Frequency of Resistance ([1]; CDC AR-0249, levofloxacin 4× MIC (256 μg/mL) alone): 2.15 × 10^−8 | Cmax (in vivo; BALF Cmax): 2000 ng/mL | Tmax (in vivo; BALF Tmax): 15 min | AUC(0-t) (in vivo; Plasma AUC 0-t): 32900 ng·h/mL | Cmax (in vivo; Plasma Cmax): 24100 ng/mL | half-life (in vivo): 88.8 min | Tmax (in vivo; Plasma Tmax): 15 min | Vd (in vivo): 1.89 L/kg | AUC(0-t) (in vivo; sc, BALF AUC 0-t): 3900 ng·h/mL

NC[C@@H]1CN[C@H](CNC(=O)c2cc3ccc(-c4ccc(F)cc4)cc3[nH]2)C1 [TXA09155]
solubility at 6 h (Aqueous solubility): 155 ± 3 µM (≈ 56.8 µg/mL) | IC50 at 10 min (CYP1A2; probe phenacetin): > 100 µM | IC50 at 20 min (CYP2C19; probe S-mephenytoin): > 100 µM | IC50 at 10 min (CYP2C9; probe diclofenac): > 100 µM

NCC(F)C[C@@H](N)CNC(=O)c1cc2ccc(-c3ccc(F)cc3)cc2[nH]1 (stereo partly drawn) [TXA11114, N-((2R)-2,5-diamino-4-fluoropentyl)-6-(4-fluorophenyl)-1H-indole-2-carboxamide]
Frequency of Resistance [1]: <1.00 × 10^−10 | Frequency of Resistance ([1]; CDC AR-0248, levofloxacin 4× MIC (64 μg/mL) + TXA11114 […]): <1.47 × 10^−10 | Frequency of Resistance ([1]; CDC AR-0249, levofloxacin 4× MIC (256 μg/mL) + TXA11114 […]): <8.77 × 10^−11 | Aqueous solubility (Aqueous solubility; pH 7.4): 145.9 ± 6.1 µM | solubility at 6 h (Aqueous solubility): > 145 µM | IC50 (CYP1A2): > 100 µM | IC50 (CYP2C19): > 100 µM | IC50 (CYP2C9): > 100 µM | AUC(0-t) (in vivo; BALF AUC 0-t): 13200 ng·h/mL | Tmax (in vivo; BALF Tmax): 240 min | AUC(0-t) (in vivo; Plasma AUC 0-t): 30700 ng·h/mL | Cmax (in vivo; Plasma Cmax): 13000 ng/mL | half-life (in vivo): 110 min | Tmax (in vivo; Plasma Tmax): 4.98 min | Vd (in vivo): 2.5 L/kg
